Measurements: PMC6156121 (Science Advances, 2018)

Experiments:
Experiment in all cases: IP kinase assay, GST-P70S6K peptide, anti-p-P70S6K Thr389 immunoblot
Type in all cases: biochemical
Conditions in all cases: […] inhibitor, […] ATP, […] MgCl2, pH […] C; ATP-competitive
mTORC1 = mTORC1 (Homo sapiens, UniProt P42345)
mTORC2 = mTORC2 (Homo sapiens, UniProt P42345)
mTORC3 = mTORC3 (Homo sapiens, UniProt P42345)

Structure (SMILES) | IP kinase assay, GST-P70S6K peptide, anti-p-P70S6K Thr389 immunoblot (mTORC1) | IP kinase assay, GST-P70S6K peptide, anti-p-P70S6K Thr389 immunoblot (mTORC2) | IP kinase assay, GST-P70S6K peptide, anti-p-P70S6K Thr389 immunoblot (mTORC3)
COc1ccc(-c2ccc3c(N4CCOC[C@@H]4C)nc(N4CCOC[C@@H]4C)nc3n2)cc1CO [AZD-8055] | inhibited the kinase activity of all mTORCs | inhibited the kinase activity of all mTORCs | preincubation with OSI-27 or AZD-8055 at an mTOR-specific concentration inhibited the kinase activity
COc1cccc2cc(-c3nc([C@H]4CC[C@H](C(=O)O)CC4)n4ncnc(N)c34)[nH]c12 [OSI-27] | inhibited the kinase activity of all mTORCs | inhibited the kinase activity of all mTORCs | preincubation with OSI-27 or AZD-8055 at an mTOR-specific concentration inhibited the kinase activity
